Blank lines part the entries; values can stand above or below the compound they belong to.
Key:
[1] = molecular target: Mitogen-activated protein kinase kinase kinase 9 (Homo sapiens) (UniProt P80192); assay: Selectivity interaction (KinomeScan (DiscoverX)) EUB0000666a MAP3K9; conditions: at 10 µM
[2] = molecular target: Serine/threonine-protein kinase PRP4 homolog (Homo sapiens) (UniProt Q13523); assay: Selectivity interaction (KinomeScan (DiscoverX)) EUB0000607a PRPF4; conditions: at 10 µM
[3] = molecular target: D(2) dopamine receptor (Homo sapiens, UniProt P14416); assay: Selectivity interaction (Panel of kinases, GPCRs, ion channels and transporters (enzymatic assay)) EUB0000266bCl DRD2
Sequence of D(2) dopamine receptor (P14416 whole entry): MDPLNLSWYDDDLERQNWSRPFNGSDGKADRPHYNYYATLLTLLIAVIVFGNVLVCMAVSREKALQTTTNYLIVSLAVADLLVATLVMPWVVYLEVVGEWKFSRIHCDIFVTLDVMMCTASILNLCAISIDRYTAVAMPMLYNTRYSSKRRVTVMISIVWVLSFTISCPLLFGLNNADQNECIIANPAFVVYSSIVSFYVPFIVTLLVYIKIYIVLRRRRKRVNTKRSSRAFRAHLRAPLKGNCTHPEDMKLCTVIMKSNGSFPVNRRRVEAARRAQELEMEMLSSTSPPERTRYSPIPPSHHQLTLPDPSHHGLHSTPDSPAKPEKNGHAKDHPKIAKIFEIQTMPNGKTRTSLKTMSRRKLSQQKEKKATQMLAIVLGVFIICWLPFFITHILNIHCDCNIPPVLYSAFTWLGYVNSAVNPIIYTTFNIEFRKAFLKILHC

[4] = molecular target: T1, Mitogen-activated protein kinase 12 (Homo sapiens) (UniProt P53778); assay: Selectivity interaction (ProQinase) EUB0000171b MAPK12
T1 sequence (whole entry): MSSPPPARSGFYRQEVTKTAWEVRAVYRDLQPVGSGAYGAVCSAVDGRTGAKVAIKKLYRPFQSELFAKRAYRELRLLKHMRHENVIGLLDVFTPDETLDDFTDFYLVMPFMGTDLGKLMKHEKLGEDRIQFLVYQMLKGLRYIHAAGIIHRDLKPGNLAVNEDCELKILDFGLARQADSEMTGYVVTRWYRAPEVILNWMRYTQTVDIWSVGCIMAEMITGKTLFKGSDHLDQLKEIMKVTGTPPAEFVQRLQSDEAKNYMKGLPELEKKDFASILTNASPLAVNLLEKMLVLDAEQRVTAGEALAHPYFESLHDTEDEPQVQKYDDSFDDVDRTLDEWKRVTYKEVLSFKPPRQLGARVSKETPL

[5] = molecular target: T2, Serine/threonine-protein kinase Sgk3 (Homo sapiens) (UniProt Q96BR1); assay: Selectivity interaction (KinomeScan (DiscoverX)) EUB0000595a SGK3; conditions: at 10 µM
T2 sequence (whole entry): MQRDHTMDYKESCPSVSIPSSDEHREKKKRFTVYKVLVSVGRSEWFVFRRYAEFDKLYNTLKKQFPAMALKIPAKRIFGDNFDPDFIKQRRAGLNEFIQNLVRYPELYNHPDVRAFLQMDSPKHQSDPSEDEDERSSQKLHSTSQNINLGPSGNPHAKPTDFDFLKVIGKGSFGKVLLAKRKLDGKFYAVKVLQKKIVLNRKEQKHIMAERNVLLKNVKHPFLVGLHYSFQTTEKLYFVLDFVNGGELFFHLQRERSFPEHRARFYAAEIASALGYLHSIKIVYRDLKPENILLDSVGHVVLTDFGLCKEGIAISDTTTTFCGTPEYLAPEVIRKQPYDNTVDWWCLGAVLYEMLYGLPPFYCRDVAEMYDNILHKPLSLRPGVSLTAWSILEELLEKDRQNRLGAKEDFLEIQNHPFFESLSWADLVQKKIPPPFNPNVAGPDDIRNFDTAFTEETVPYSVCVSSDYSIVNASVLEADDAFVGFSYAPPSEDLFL

[6] = molecular target: Dual specificity protein kinase CLK3 (Homo sapiens, UniProt P49761); assay: Selectivity interaction (Ambit KINOMEscan and KiNATiv profiling in Jurkat cells) EUB0000090b CLK3; type: cell-based; conditions: at 1 µM
Sequence of Dual specificity protein kinase CLK3 (P49761 whole entry, looked up): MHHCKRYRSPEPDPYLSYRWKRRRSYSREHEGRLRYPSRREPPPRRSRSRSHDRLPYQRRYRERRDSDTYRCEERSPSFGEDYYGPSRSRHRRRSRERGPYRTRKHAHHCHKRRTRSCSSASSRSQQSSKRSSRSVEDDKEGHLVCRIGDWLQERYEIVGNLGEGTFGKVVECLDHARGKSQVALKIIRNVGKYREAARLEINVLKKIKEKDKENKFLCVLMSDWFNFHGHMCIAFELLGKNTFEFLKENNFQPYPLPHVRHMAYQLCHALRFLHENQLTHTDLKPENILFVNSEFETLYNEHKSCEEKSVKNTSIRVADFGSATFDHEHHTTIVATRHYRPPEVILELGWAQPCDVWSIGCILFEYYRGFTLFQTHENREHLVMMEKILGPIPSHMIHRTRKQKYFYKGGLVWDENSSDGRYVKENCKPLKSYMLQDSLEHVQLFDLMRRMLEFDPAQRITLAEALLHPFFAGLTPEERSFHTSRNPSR

[7] = molecular target: MAP kinase-interacting serine/threonine-protein kinase 2 (Homo sapiens, UniProt Q9HBH9); assay: Selectivity interaction (KinomeScan (DiscoverX)) EUB0000045b MKNK2
Sequence of MAP kinase-interacting serine/threonine-protein kinase 2 (Q9HBH9 whole entry, looked up): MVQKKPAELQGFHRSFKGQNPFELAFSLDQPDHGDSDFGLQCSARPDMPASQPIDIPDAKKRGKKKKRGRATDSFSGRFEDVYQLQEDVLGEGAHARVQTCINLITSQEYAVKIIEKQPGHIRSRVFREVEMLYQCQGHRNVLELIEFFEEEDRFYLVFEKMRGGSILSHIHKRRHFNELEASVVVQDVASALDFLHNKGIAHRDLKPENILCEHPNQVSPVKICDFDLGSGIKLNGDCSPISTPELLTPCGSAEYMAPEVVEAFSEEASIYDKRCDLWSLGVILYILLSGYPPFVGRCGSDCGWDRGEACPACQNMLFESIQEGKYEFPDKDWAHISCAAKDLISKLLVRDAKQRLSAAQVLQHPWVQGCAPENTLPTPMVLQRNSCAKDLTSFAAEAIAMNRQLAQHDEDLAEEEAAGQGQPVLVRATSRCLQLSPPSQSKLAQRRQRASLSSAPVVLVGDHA

[8] = molecular target: T3, Serine/threonine-protein kinase ICK (Homo sapiens) (UniProt Q9UPZ9); assay: Selectivity interaction (KinomeScan (DiscoverX)) EUB0001079a ICK; conditions: at 1 µM
T3 sequence (whole entry): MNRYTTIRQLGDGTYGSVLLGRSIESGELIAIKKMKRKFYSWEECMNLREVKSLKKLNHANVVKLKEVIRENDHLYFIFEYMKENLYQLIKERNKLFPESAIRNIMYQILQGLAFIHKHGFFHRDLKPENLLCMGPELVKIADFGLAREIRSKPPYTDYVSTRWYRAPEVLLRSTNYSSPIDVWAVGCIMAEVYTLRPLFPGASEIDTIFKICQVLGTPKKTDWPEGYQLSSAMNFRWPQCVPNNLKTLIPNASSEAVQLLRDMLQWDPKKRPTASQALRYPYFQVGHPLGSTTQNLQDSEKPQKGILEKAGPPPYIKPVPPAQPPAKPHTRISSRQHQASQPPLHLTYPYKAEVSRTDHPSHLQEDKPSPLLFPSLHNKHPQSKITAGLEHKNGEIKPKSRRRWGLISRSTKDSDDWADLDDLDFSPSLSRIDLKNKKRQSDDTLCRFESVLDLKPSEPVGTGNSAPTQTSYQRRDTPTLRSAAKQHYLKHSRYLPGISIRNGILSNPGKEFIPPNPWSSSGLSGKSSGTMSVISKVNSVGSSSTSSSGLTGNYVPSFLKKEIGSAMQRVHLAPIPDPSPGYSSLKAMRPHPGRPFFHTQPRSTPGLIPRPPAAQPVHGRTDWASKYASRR

[9] = molecular target: T4, Homeodomain-interacting protein kinase 4 (Homo sapiens) (UniProt Q8NE63); assay: Selectivity interaction (KinomeScan (DiscoverX)) EUB0001619a HIPK4; conditions: at 1 µM
T4 sequence (whole entry): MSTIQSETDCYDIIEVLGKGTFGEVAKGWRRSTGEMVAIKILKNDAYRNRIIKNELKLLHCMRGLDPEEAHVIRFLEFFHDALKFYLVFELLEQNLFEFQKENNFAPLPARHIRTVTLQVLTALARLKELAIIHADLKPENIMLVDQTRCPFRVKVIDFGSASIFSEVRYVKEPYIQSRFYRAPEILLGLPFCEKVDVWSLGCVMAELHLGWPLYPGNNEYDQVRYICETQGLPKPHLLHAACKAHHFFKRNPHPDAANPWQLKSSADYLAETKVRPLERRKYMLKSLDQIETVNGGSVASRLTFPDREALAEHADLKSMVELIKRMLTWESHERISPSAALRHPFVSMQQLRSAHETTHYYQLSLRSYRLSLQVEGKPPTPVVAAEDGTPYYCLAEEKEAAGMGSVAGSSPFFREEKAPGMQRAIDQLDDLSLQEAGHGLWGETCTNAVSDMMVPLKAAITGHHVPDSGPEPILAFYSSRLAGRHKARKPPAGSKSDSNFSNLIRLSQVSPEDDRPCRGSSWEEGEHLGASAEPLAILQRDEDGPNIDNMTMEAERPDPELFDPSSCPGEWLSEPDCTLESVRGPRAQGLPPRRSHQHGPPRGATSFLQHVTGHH

Sequence of Serine/threonine-protein kinase PRP4 homolog (Homo sapiens) (Q13523 whole entry): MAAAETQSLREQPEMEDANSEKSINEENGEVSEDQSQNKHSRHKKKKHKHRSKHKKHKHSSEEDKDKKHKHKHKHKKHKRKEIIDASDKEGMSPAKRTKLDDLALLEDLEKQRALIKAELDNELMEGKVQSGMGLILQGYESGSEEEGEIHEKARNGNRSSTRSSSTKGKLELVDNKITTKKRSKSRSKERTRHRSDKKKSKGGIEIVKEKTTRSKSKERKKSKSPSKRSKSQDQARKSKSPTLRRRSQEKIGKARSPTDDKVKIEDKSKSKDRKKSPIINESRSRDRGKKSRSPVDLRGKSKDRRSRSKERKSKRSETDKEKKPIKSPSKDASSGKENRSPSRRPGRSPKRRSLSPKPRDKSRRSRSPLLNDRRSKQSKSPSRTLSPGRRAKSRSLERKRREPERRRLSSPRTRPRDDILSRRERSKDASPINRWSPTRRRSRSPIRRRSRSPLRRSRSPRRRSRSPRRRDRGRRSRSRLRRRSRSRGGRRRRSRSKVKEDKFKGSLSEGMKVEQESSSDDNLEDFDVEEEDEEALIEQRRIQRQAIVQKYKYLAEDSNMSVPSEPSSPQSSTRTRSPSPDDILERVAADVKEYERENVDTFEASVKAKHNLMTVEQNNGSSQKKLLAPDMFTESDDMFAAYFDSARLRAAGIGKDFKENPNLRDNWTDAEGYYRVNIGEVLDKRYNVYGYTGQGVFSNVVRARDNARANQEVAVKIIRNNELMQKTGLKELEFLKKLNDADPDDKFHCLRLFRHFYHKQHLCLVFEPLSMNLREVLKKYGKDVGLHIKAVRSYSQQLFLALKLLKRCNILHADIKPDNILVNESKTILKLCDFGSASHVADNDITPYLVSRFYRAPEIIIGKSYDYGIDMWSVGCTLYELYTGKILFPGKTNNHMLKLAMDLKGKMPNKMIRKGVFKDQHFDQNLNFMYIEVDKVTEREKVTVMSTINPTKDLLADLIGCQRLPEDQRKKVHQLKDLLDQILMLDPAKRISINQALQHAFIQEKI
Sequence of Mitogen-activated protein kinase kinase kinase 9 (Homo sapiens) (P80192 whole entry, looked up): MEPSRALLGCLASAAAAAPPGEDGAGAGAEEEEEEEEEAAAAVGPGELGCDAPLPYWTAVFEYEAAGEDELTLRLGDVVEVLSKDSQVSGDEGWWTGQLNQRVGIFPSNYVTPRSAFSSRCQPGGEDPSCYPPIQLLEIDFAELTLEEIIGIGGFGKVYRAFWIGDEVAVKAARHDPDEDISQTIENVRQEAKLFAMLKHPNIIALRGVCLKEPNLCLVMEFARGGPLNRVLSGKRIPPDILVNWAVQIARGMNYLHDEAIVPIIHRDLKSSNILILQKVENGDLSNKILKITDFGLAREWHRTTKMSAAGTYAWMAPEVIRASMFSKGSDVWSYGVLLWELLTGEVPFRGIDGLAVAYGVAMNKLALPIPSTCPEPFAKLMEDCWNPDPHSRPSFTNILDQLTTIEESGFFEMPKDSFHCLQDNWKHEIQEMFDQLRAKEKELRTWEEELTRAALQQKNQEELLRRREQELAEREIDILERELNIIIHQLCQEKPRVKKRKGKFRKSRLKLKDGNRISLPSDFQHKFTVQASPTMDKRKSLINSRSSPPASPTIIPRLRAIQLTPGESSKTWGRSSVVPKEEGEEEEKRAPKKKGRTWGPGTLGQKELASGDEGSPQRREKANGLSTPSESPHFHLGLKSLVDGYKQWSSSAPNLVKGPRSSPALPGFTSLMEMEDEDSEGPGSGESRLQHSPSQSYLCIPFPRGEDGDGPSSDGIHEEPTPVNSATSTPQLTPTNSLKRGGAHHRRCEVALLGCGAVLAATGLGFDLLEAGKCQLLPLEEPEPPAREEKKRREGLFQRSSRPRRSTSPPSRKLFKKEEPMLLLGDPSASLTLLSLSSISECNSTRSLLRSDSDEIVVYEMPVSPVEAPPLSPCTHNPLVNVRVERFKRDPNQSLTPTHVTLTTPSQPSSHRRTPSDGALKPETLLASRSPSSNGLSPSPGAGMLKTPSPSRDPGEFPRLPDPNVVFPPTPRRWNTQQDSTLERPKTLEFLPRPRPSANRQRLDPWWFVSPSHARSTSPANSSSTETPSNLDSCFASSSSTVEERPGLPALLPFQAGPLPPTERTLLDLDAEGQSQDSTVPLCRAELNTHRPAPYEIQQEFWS

SMILES: O=C(NOC[C@H](O)CO)c1ccc(F)c(F)c1Nc1ccc(I)cc1F
% of control [1]: 95%

SMILES: CNC(=O)Nc1ccc(-c2nc(N3CC4CCC(C3)O4)c3cnn(C4CCC5(CC4)OCCO5)c3n2)cc1
% of control [2]: 70%

pXC50 [3]: 4.5 M
SMILES: CCn1c(-c2nc3cc(C(=O)N4CCCC(N)C4)ccc3n2C)cc2ccccc21 (stereo unspecified)

% of control ([4]; at 1 µM): 94% | % of control ([4]; at 5 µM): 87%
SMILES: C=CC(=O)Nc1cccc(C(=O)Nc2ccc(Nc3cc(-c4[nH]c(SC)nc4C)ccn3)cc2)c1

SMILES: COCC(=O)NC/C=C/c1ccc2ncnc(Nc3ccc(Oc4ccc(C)nc4)c(C)c3)c2c1 [CP-724714]
% of control [5]: 100%

SMILES: CN(C)C/C=C/C(=O)Nc1ccc(C(=O)N2CCCC(Nc3ncc(Cl)c(-c4c[nH]c5ccccc45)n3)C2)cc1 (stereo unspecified)
% of control [6]: 81%

SMILES: C=CC(=O)Nc1cc(-n2c(=O)ccc3cnc4ccc(-c5ccc(NS(C)(=O)=O)cc5)cc4c32)ccc1C
% of control ([7]; at 1 µM): 100% | % of control ([7]; at 10 µM): 52%

SMILES: Nc1cnc(N2CCc3cc(S(=O)(=O)Nc4c(F)cc(Cl)cc4F)cc(N4CCCC4=O)c32)nc1 [TP-020n]
% of control [8]: 80%

SMILES: N#Cc1cccc(-c2c[nH]c3ncnc(N4CCOCC4)c23)c1
% of control [9]: 100%

Source: ChEMBL document CHEMBL5465560, “Selectivity Literature for EUbOPEN Chemogenomic Library” (2024)
